The conditions of data set [1]: cited from earlier work.
Data set [2] is described as follows: In vitro release of cosmetic active molecules from loaded microgels by a dialysis method. The conditions noted are these: 35% ethanol in dialysate medium, pH 6, 25° C. The method, then:
The study of active molecules release kinetics was carried out by a dialysis method in order to verify that no microgel diffusion occur in dialysate medium (that may also be called “release medium”), and in order to observe the cosmetic active molecule release profile against time.
For that, active molecules-loaded microgel particle dispersions (1 mg/mg microgel) were dialyzed against a dialysate medium. Diffusion of the cosmetic active molecule from the loaded-microgel dispersion medium to the dialysate medium is observed, until an equilibrium concentration is reached between both media.
Loaded-microgel particles comprising an active molecule in an amount of 1 mg/(mg unloaded microgel) were placed inside a dialysis tube and dialyzed in different buffered dialysate media (having different pH, having different temperature, containing a solvent and/or containing a surfactant). The buffered dialysate medium can contain ethanol, citric acid, sodium phosphate dibasic or/and polyoxyethylene monooleate sorbitan (also named Polysorbate 80, Tween® 80 or INCI […]). Active substance concentration in the dialysate medium was determined by UV-Vis.
The effect of temperature on the release kinetics of active molecules was investigated with the dialysate method maintaining pH of the dialysate medium constant at 4.5. The in vitro release was studied at two different temperatures: 25° C. […]

The conditions of data set [3]: cited from earlier work. The source holds these as a separate data set.

Converted amounts (≈) assume the structure as drawn. Where two headings read alike, the source gives them in different places.

Consider `CC(C)=CCCC(C)CCO` (stereo not shown) [Citronellol, 3,7-dimethyloct-6-en-1-ol], for which the Solubility in water in data set [1] (at 25° C.) is 200 µg/mL (≈ 1280 µM). Also, the “Solubility in ethanol” value in data set [1] is on record as “very soluble in ethanol”.

As to `CCCCC(CC)COC(=O)c1ccccc1O` (stereo not shown) [Escalol, 2-ethylhexyl salicylate], in data set [2], the “Incubation time in which 100% is released” value was not above 6 h. Moreover, in data set [1], the “Solubility in ethanol” value is “soluble in ethanol” and the “Solubility in water” value was “slighty soluble in water”.

For `O=C(O)c1ccccc1O` [Salicylic acid, 2-Hydroxybenzoic acid, reference compound], in data set [1], the “Solubility in ethanol” value is recorded as “soluble in ethanol”.

Turning to `CCCCCCOC(=O)c1ccccc1C(=O)c1ccc(N(CC)CC)cc1O` [Uvinul-A, hexyl 2-[4-(diethylamino)-2-hydroxybenzoyl]benzoate], in data set [1], the “Solubility in ethanol” value was “soluble in ethanol” and the “Solubility in water” value was “insoluble in water”.

Usually pKa stands for the pH at which an ionisable group is half protonated. For the compound Hyaluronic acid, the pKa in data set [3] is on record as 3. In addition, the “Solubility in water” value in data set [1] was “soluble in water”.

The values are drawn from patent US20200197266A1, “MICROGELS FOR THE DELIVERY OF COSMETIC ACTIVE ORGANIC SUBSTANCES” (LVMH RECHERCHE, priority 2017, published 2020).
